In patent publication US11439707B2, “Hypocrellin derivative substituted both in a peri-position and in 2-position by amino, preparation method, and application thereof” (priority 2017, dated 2022) one finds singlet oxygen yield, maximum absorption wavelength and molar extinction coefficient data, which are given here for 30 compounds.

Series [1] in a line: singlet oxygen efficiency test, reference rose bengal. The class given is physicochemical.
Series [2] is described as follows: absorption spectrum (maximum absorption wavelength, molar extinction coefficient). The class given is physicochemical.

Each structure is given as a SMILES string. Where “and” joins values, the source holds several entries; their conditions need not be identical. Equal values may be shown once.

`COc1c(O)c2c(=O)cc(OC)c3c4c(OC)cc(=O)c5c(NCCC(=O)O)c(NCCC(=O)O)c6c(c(c1C(C(C)=O)C(C)=C6)c23)c54` (stereo not drawn) [HB-10a] had a singlet oxygen yield in series [1] of 32%. Besides, in series [2], the maximum absorption wavelength came out at 620 nm and the molar extinction coefficient was 31,000 M^−1cm^−1.

Consider `COc1c2c3c4c(c(NCC5CCC(C(=O)NCCCCS(=O)(=O)O)CC5)c(=O)c5c(O)cc(OC)c(c6c(OC)cc(NCC7CCC(C(=O)NCCCCS(=O)(=O)O)CC7)c(c1=O)c63)c54)C=C(C)C2` (stereo not drawn) [HC-13d-C4-SO3H], for which the singlet oxygen yield in series [1] was 30%. For the same compound, in series [2], the maximum absorption wavelength is on record as 624 nm and the molar extinction coefficient is 31,000 M^−1cm^−1.

Compound `COc1c2c3c4c(c(NC(C(=O)O)C(C)C)c(=O)c5c(NC(C(=O)O)C(C)C)cc(OC)c(c6c(OC)cc(O)c(c1=O)c63)c54)C=C(C)C2C(C)=O` (stereo not drawn) [HB-22c] displayed a singlet oxygen yield in series [1] of 22%. In series [2], the maximum absorption wavelength stood at 620 nm and the molar extinction coefficient was 21,500 M^−1cm^−1.

In series [1], `COc1c2c3c4c(c(NCC(=O)O)c(=O)c5c(O)cc(OC)c(c6c(OC)cc(NCC(=O)O)c(c1=O)c63)c54)C=C(C)C2` [HC-7d] returned a singlet oxygen yield of 25%. Moreover, in series [2], the maximum absorption wavelength was found to be 626 nm and the molar extinction coefficient is 26,000 M^−1cm^−1.

In series [1], `COc1c(NCCCC(=O)NCCCC[N+](C)(C)C)c2c(=O)cc(OC)c3c4c(OC)cc(=O)c5c(O)c(NCCCC(=O)NCCCC[N+](C)(C)C)c6c(c(c1CC(C)=C6)c23)c54` [HC-8b-NH—C4-N^+] yielded a singlet oxygen yield of 32%. In series [2], the maximum absorption wavelength was 626 nm and the molar extinction coefficient is on record as 30,500 M^−1cm^−1.

The compound `CCNNc1c2c3c4c(c(OC)c(=O)c5c(NNCC)cc(OC)c(c6c(OC)cc(O)c(c1=O)c63)c54)C(C(C)=O)C(C)=C2` (stereo not drawn) [HB-36d] showed a singlet oxygen yield in series [1] of 32%. For the same compound, in series [2], the maximum absorption wavelength worked out at 621 nm and the molar extinction coefficient is on record as 32,000 M^−1cm^−1.

In turn, `COc1c(NCCO)c2c(=O)cc(OC)c3c4c(OC)cc(=O)c5c(O)c(NCCO)c6c(c(c1C(C(C)=O)C(C)=C6)c23)c54` (stereo not drawn) [HB-2b] showed a singlet oxygen yield in series [1] of 25%. Further, in series [2], the maximum absorption wavelength was 627 nm and the molar extinction coefficient was determined as 31.500 M⁻¹ cm⁻¹.

Compound `COCCOCCC(=O)OCCNc1c(NCCOC(=O)CCOCCOC)c2c(=O)cc(OC)c3c4c(OC)cc(=O)c5c(O)c(OC)c6c(c(c1C=C(C)C6C(C)=O)c23)c54` (stereo not drawn) [HB-2a-PEG1] showed a singlet oxygen yield in series [1] of 30%. In addition, in series [2], the maximum absorption wavelength was 620 nm and the molar extinction coefficient is recorded as 30,500 M^−1cm^−1.

`CCNc1c(O)c2c(=O)c(SCCO)c(OC)c3c4c(OC)cc(=O)c5c(NC6CCCC6)c(OC)c6c(c(c1C=C(C)C6C(C)=O)c23)c54` (stereo not drawn) [HB-S-44b] showed a singlet oxygen yield in series [1] of 18%. In series [2], the maximum absorption wavelength came out at 622 nm and the molar extinction coefficient is 21,000 M^−1cm^−1.

In series [1], `COCCOCCC(=O)OCCNc1c(NCCOC(=O)CCOCCOC)c2c(=O)cc(OC)c3c4c(OC)cc(=O)c5c(O)c(OC)c6c(c(c1C=C(C)C6)c23)c54` [HC-2a-PEG1] displayed a singlet oxygen yield of 30%. In series [2], the maximum absorption wavelength turned out to be 622 nm and the molar extinction coefficient is 30,000 M^−1cm^−1.

`COc1c2c3c4c(c(NC(CS)C(=O)O)c(=O)c5c(NC(CS)C(=O)O)cc(OC)c(c6c(OC)cc(O)c(c1=O)c63)c54)C=C(C)C2C(C)=O` (stereo not drawn) [HB-25c] returned a singlet oxygen yield in series [1] of 20%. In series [2], the maximum absorption wavelength turned out to be 632 nm and the molar extinction coefficient is reported as 21,500 M^−1cm^−1.

Turning to `COc1c(NCCCC(=O)NCCCCS(=O)(=O)O)c2c(=O)cc(OC)c3c4c(OC)cc(=O)c5c(O)c(NCCCC(=O)NCCCCS(=O)(=O)O)c6c(c(c1CC(C)=C6)c23)c54` [HC-8b-NH—C4-SO3H], the singlet oxygen yield in series [1] worked out at 33%. Further, in series [2], the maximum absorption wavelength was 624 nm and the molar extinction coefficient is reported as 31,500 M^−1cm^−1.

Turning to `COCCOCCOCCOCCOCCOCCOCCC(=O)OC1CCC(Nc2c3c4c5c(c(OC)c(=O)c6c(NC7CCC(OC(=O)CCOCCOCCOCCOCCOCCOCCOC)C7)cc(OC)c(c7c(OC)cc(O)c(c2=O)c74)c65)C(C(C)=O)C(C)=C3)C1` (stereo not drawn) [HB-20d-PEG6], the singlet oxygen yield in series [1] came to 32%. In addition, in series [2], the maximum absorption wavelength is reported as 630 nm and the molar extinction coefficient is listed as 30,500 M^−1cm^−1.

Consider `COc1c2c3c4c(c(NCC5CCC(C(=O)O)CC5)c(=O)c5c(O)cc(OC)c(c6c(OC)cc(NCC7CCC(C(=O)O)CC7)c(c1=O)c63)c54)C=C(C)C2C(C)=O` (stereo not drawn) [HB-13d], for which the singlet oxygen yield in series [1] is 28%. Moreover, in series [2], the maximum absorption wavelength came to 621 nm and the molar extinction coefficient is 28,000 M^−1cm^−1.

`COc1c(O)c2c(=O)cc(OC)c3c4c(OC)cc(=O)c5c(NC6CCCC6C(=O)O)c(NC6CCCC6C(=O)O)c6c(c(c1C(C(C)=O)C(C)=C6)c23)c54` (stereo not drawn) [HB-21a] registered a singlet oxygen yield in series [1] of 20%. For the same compound, in series [2], the maximum absorption wavelength was found to be 620 nm and the molar extinction coefficient is recorded as 23,500 M^−1cm^−1.

Compound `COc1c(NC2(CO)CC2)c2c(=O)cc(OC)c3c4c(OC)cc(=O)c5c(O)c(NC6(CO)CC6)c6c(c(c1C(C(C)=O)C(C)=C6)c23)c54` (stereo not drawn) [HB-35b] had a singlet oxygen yield in series [1] of 30%. For the same compound, in series [2], the maximum absorption wavelength worked out at 620 nm and the molar extinction coefficient is 31,500 M^−1cm^−1.

Consider `COc1c2c3c4c(c(NC(CC(=O)O)C(=O)O)c(=O)c5c(O)cc(OC)c(c6c(OC)cc(NC(CC(=O)O)C(=O)O)c(c1=O)c63)c54)C=C(C)C2C(C)=O` (stereo not drawn) [HB-27d], for which the singlet oxygen yield in series [1] worked out at 18%. In addition, in series [2], the maximum absorption wavelength is reported as 620 nm and the molar extinction coefficient was 21,500 M^−1cm^−1.

In series [1], `COc1c(O)c2c(=O)cc(OC)c3c4c(OC)cc(=O)c5c(NCCOCCO)c(NCCOCCO)c6c(c(c1C(C(C)=O)C(C)=C6)c23)c54` (stereo not drawn) [HB-1a] gave a singlet oxygen yield of 35%. In addition, in series [2], the maximum absorption wavelength was 630 nm and the molar extinction coefficient is recorded as 30,000 M^−1cm^−1.

Take `COCCOCCC(=O)OCCOCCNc1c(NCCCC(=O)O)c2c(=O)cc(OC)c3c4c(OC)cc(=O)c5c(O)c(OC)c6c(c(c1C=C(C)C6C(C)=O)c23)c54` (stereo not drawn) [HB-48a-PEG1]: the singlet oxygen yield in series [1] was determined as 32%. Moreover, in series [2], the maximum absorption wavelength amounted to 628 nm and the molar extinction coefficient is reported as 31,500 M^−1cm^−1.

`COCCOCCOCCOCCOCCOCCOCCC(=O)OCC1(Nc2c(O)c3c(=O)cc(OC)c4c5c(OC)cc(=O)c6c(NC7(COC(=O)CCOCCOCCOCCOCCOCCOCCOC)CC7)c(OC)c7c(c(c2C=C(C)C7C(C)=O)c34)c65)CC1` (stereo not drawn) [HB-35b-PEG6]: the singlet oxygen yield in series [1] worked out at 32%. Besides, in series [2], the maximum absorption wavelength was 624 nm and the molar extinction coefficient was 30,500 M^−1cm^−1.

As for `COCCOCCNC(=O)C1CCC(CNc2c(NCC3CCC(C(=O)NCCOCCOC)CC3)c3c(=O)cc(OC)c4c5c(OC)cc(=O)c6c(O)c(OC)c7c(c(c2C=C(C)C7C(C)=O)c34)c65)CC1` (stereo not drawn) [HB-13a-NH-PEG1], the singlet oxygen yield in series [1] is 32%. Further, in series [2], the maximum absorption wavelength is 624 nm and the molar extinction coefficient is listed as 31,000 M^−1cm^−1.

In series [1], `COc1c2c3c4c(c(NC(CO)C(=O)O)c(=O)c5c(O)cc(OC)c(c6c(OC)cc(NC(CO)C(=O)O)c(c1=O)c63)c54)C=C(C)C2C(C)=O` (stereo not drawn) [HB-23d] gave a singlet oxygen yield of 18%. Further, in series [2], the maximum absorption wavelength amounted to 621 nm and the molar extinction coefficient is 21,500 M^−1cm^−1.

For `COCCOCCOCCOCCOCCOCCOCCOCCOCCOCCOCCOCCOC(=O)C1CCC(Nc2c3c4c5c(c(OC)c(=O)c6c(O)cc(OC)c(c7c(OC)cc(NC8CCC(C(=O)OCCOCCOCCOCCOCCOCCOCCOCCOCCOCCOCCOCCOC)C8)c(c2=O)c74)c65)C(C(C)=O)C(C)=C3)C1` (stereo not drawn) [HB-19c-PEG12], the singlet oxygen yield in series [1] is 38%. In series [2], the maximum absorption wavelength is 636 nm and the molar extinction coefficient is given as 33,500 M^−1cm^−1.

As for `COc1c2c3c4c(c(NCCOC(=O)N5CC(=O)NC(=O)C5)c(=O)c5c(O)cc(OC)c(c6c(OC)cc(NCCOC(=O)N7CC(=O)NC(=O)C7)c(c1=O)c63)c54)C=C(C)C2C(C)=O` (stereo not drawn) [HB-40d], the singlet oxygen yield in series [1] came to 30%. In addition, in series [2], the maximum absorption wavelength is reported as 628 nm and the molar extinction coefficient is on record as 31,500 M^−1cm^−1.

As to `COc1c2c3c4c(c(NCCSCCOCCO)c(=O)c5c(O)cc(OC)c(c6c(OC)cc(NCCSCCOCCO)c(c1=O)c63)c54)C=C(C)C2C(C)=O` (stereo not drawn) [HB-6d-PEG1], the singlet oxygen yield in series [1] was determined as 32%. For the same compound, in series [2], the maximum absorption wavelength worked out at 625 nm and the molar extinction coefficient is reported as 30,500 M^−1cm^−1.

With `COCCOCCOCCOCCOCCOCCOCCOCCOCCOCCOCCOCCOCCC(=O)N1CCC(CNc2c3c4c5c(c(OC)c(=O)c6c(NCC7CCN(C(=O)CCOCCOCCOCCOCCOCCOCCOCCOCCOCCOCCOCCOCCOC)CC7)cc(OC)c(c7c(OC)c(Br)c(O)c(c2=O)c47)c65)C(C(C)=O)C(C)=C3)CC1` (stereo not drawn) [HB-31d-Br-PEG12], the singlet oxygen yield in series [1] turned out to be 33%. Besides, in series [2], the maximum absorption wavelength turned out to be 632 nm and the molar extinction coefficient is 31,500 M^−1cm^−1.

With `CCCCCCNc1c2c3c4c(c(OC)c(=O)c5c(O)cc(OC)c(c6c(OC)cc(NCCCCCC)c(c1=O)c63)c54)CC(C)=C2` [HC-34c], in series [1], the singlet oxygen yield was 38%. In addition, in series [2], the maximum absorption wavelength is recorded as 624 nm and the molar extinction coefficient is listed as 32,500 M^−1cm^−1.

Compound `COc1c2c3c4c(c(NCCCCCCS(=O)(=O)O)c(=O)c5c(NCCCCCCS(=O)(=O)O)cc(OC)c(c6c(OC)cc(O)c(c1=O)c63)c54)C=C(C)C2C(C)=O` (stereo not drawn) [HB-11c-C6-SO3H] came in with a singlet oxygen yield in series [1] of 38%. Besides, in series [2], the maximum absorption wavelength amounted to 626 nm and the molar extinction coefficient was 31,500 M^−1cm^−1.

Turning to `C=CC1=C(C)c2cc3[nH]c(cc4[nH]c(cc5nc(cc1n2)C(C)=C5C=C)c(C)c4CCC(=O)O)c(CCC(=O)O)c3C` [PpIX, reference compound], in series [2], the maximum absorption wavelength was 570 nm and 630 nm; the molar extinction coefficient entry is “less than 10000 M^−1cm^−1”.

Regarding `COc1c(O)c2c(=O)cc(OC)c3c4c(OC)cc(=O)c5c(NCCO)c(NCCO)c6c(c(c1C(C(C)=O)C(C)=C6)c23)c54` (stereo not drawn) [HB-2a], the singlet oxygen yield in series [1] was found to be 28%.
